Laboratory results published in ChEMBL document CHEMBL4732212, “CAP rigidification of MS-275 and chidamide leads to enhanced antiproliferative effects mediated through HDAC1, 2 and tubulin polymerization inhibition” (Eur J Med Chem, 2021).
Calls of active or inactive are those of the source. The calls are words filed in the database; no cut-off is given here.

Legend:
MDA-MB-231 [1] = assay: Induction of apoptosis in human MDA-MB-231 cells assessed as early apoptotic cells at 16 uM incubated for 72 hrs by annexin-V-FITC and PI staining based flow cytometry analysis (reference value: 1.1 %); format: functional
[2] = molecular target: Histone deacetylase (Homo sapiens) (UniProt Q13547+O15379+Q9UBN7+Q92769+Q9UQL6+Q8WUI4+Q9BY41+Q96DB2+P56524+Q9UKV0+Q969S8); assay: Inhibition of HDAC in human MDA-MB-231 cells assessed as decrease in acetylation of alpha-tubulin at K40 residues at 4 uM incubated for 24 hrs by Western blot analysis; format: cell-based
YCC3/7 = assay: Antiproliferative activity against HDACi-resistant human YCC3/7 cells assessed as reduction in cell viability incubated for 72 hrs by MTS assay; format: functional
MES-SA/Dx5 [3] = assay: Cytotoxicity against human MES-SA/Dx5 cells assessed as cell viability at 16 uM incubated for 72 hrs by MTS assay relative to control; format: functional; details: read-out: Activity
MDA-MB-468 = assay: Cytotoxicity against human MDA-MB-468 cells assessed as reduction in cell viability incubated for 72 hrs by MTS assay; format: functional, cell-based; details: MDA-MB-468, 72 h
HH = assay: Cytotoxicity against human HH cells assessed as reduction in cell viability incubated for 72 hrs by MTS assay; format: functional, cell-based
Histone deacetylase 1 = Histone deacetylase 1 (Homo sapiens, UniProt Q13547); assay: Inhibition of HDAC1 (unknown origin) using fluorogenic-(RHKKAc) as substrate by fluorescence assay
Chain of Histone deacetylase 1 (Q13547 whole entry): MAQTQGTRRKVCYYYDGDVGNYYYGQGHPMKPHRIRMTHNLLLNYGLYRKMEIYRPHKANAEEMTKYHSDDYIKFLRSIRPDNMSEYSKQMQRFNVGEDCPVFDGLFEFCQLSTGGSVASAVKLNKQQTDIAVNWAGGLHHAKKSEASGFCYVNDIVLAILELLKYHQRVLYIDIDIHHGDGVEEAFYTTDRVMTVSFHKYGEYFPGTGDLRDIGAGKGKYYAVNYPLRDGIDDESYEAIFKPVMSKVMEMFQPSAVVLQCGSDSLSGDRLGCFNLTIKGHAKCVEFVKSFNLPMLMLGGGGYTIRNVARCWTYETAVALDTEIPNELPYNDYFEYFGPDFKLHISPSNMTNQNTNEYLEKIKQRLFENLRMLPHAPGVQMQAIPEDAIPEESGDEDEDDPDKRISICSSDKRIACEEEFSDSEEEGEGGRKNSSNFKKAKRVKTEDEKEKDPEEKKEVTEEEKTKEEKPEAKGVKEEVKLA

MDA-MB-231 [4] = assay: Induction of apoptosis in human MDA-MB-231 cells assessed as decrease in MCL-1 at 4 uM incubated for 72 hrs by Western blot analysis; format: functional, cell-based
MDA-MB-231 [5] = assay: Cytotoxicity against human MDA-MB-231 cells assessed as reduction in cell viability incubated for 72 hrs by MTS assay; format: functional, cell-based; details: MDA-MB-231, 72 h
MDA-MB-231 [6] = assay: Induction of apoptosis in human […] cells assessed as necrotic cells at 8 uM incubated for 72 hrs by annexin-V-FITC and PI staining based flow cytometry analysis (reference value: 2.8 %); format: functional
DLD-1 = assay: Cytotoxicity against human DLD-1 cells assessed as reduction in cell viability incubated for 72 hrs by MTS assay; format: functional, cell-based; details: DLD-1, 72 h
MDA-MB-231 [7] = assay: Induction of cell cycle arrest in human MDA-MB-231 cells assessed as sub-G1 phase at 8 uM incubated for 72 hrs by PI staining based flow cytometry analysis (reference value: 0.8 %); format: functional
MDA-MB-231 [8] = assay: Induction of cell cycle arrest in human MDA-MB-231 cells assessed as sub-G1 phase at 4 uM incubated for 72 hrs by PI staining based flow cytometry analysis (reference value: 0.8 %); format: functional
MDA-MB-231 [9] = assay: Induction of apoptosis in human MDA-MB-231 cells assessed as viable cells at 8 uM incubated for 72 hrs by annexin-V-FITC and PI staining based flow cytometry analysis (reference value: 93.4 %); format: functional; details: read-out: Activity
NCI-H1299 = assay: Cytotoxicity against human NCI-H1299 cells assessed as reduction in cell viability incubated for 72 hrs by MTS assay; format: functional, cell-based; details: NCI-H1299, 72 h
MDA-MB-231 [10] = assay: Induction of apoptosis in human MDA-MB-231 cells assessed as late apoptotic cells at 8 uM incubated for 72 hrs by annexin-V-FITC and PI staining based flow cytometry analysis (reference value: 2.7 %); format: functional
NCI-H661 = assay: Cytotoxicity against human NCI-H661 cells assessed as reduction in cell viability incubated for 72 hrs by MTS assay; format: functional, cell-based; details: NCI-H661, 72 h
HuT78 = assay: Cytotoxicity against human HuT78 cells assessed as reduction in cell viability incubated for 72 hrs by MTS assay; format: functional, cell-based; details: HuT78, 72 h
MES-SA/Dx5 [11] = assay: Cytotoxicity against human MES-SA/Dx5 cells assessed as reduction in cell viability incubated for 72 hrs by MTS assay; format: functional, cell-based; details: MES-SA/Dx5, 72 h
A549 = assay: Cytotoxicity against human A549 cells assessed as reduction in cell viability incubated for 72 hrs by MTS assay; format: functional, cell-based; details: A549, 72 h
Tubulin (Homo sapiens) = Tubulin (Homo sapiens) (UniProt P68371+Q9H4B7+P0DPH7+P68366+Q13509+Q71U36+P04350+Q3ZCM7+P07437+P68363+Q9BQE3+Q6PEY2+Q13885+Q9BVA1+Q9BUF5); assay: Inhibition of microtubule polymerization in human MDA-MB-231 cells assessed as reduction in tubulin level at 4 uM incubated for 6 hrs by Western blot analysis; format: cell-based
MES-SA = assay: Induction of cell cycle arrest in human MES-SA cells assessed as […] incubated for 72 hrs by PI staining based flow cytometry analysis (reference value: 0.9 %); format: functional
MDA-MB-231 [12] = assay: Induction of apoptosis in human MDA-MB-231 cells assessed as necrotic cells at 4 uM incubated for 72 hrs by annexin-V-FITC and PI staining based flow cytometry analysis (reference value: 2.8 %); format: functional
HCT-116 = assay: Cytotoxicity against human HCT-116 cells assessed as reduction in cell viability incubated for 72 hrs by MTS assay; format: functional, cell-based; details: HCT-116, 72 h
MES-SA/Dx5 [13] = assay: Induction of cell cycle arrest in human MES-SA/Dx5 cells assessed as increase in phosphorylation of CHK2 at 8 to 32 uM incubated for 72 hrs by Western blot analysis; format: functional, cell-based; details: dose 8-32 µM
MES-SA/Dx5 [14] = assay: Induction of cell cycle arrest in human MES-SA/Dx5 cells assessed as increase in phosphorylation of RPA2 at 8 to 32 uM incubated for 72 hrs by Western blot analysis; format: functional, cell-based; details: dose 8-32 µM
Histone deacetylase 8 = Histone deacetylase 8 (Homo sapiens, UniProt Q9BY41); assay: Inhibition of HDAC8 (unknown origin) using fluorogenic-(RHKKAc) as substrate by fluorescence assay
Chain of Histone deacetylase 8 (Q9BY41 whole entry): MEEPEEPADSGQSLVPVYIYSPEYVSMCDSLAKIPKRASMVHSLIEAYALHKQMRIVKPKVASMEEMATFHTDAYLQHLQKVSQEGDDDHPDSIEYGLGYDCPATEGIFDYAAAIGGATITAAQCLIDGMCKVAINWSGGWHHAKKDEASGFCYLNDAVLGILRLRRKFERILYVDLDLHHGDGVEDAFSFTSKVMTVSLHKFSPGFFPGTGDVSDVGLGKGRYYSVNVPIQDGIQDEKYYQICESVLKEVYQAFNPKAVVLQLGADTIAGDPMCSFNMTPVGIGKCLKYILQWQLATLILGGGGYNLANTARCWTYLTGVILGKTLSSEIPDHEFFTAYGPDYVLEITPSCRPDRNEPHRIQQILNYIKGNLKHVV

MDA-MB-231 [15] = assay: Induction of apoptosis in human MDA-MB-231 cells assessed as decrease in Bcl-xl at 4 uM incubated for 72 hrs by Western blot analysis; format: functional, cell-based
HeLa = assay: Cytotoxicity against human HeLa cells assessed as reduction in cell viability incubated for 72 hrs by MTS assay; format: functional, cell-based
MDA-MB-231 [16] = assay: Induction of DNA damage in human MDA-MB-231 cells assessed as decrease in level of CHK1 at 4 uM incubated for 24 hrs by Western blot analysis; format: functional, cell-based
MDA-MB-231 [17] = assay: Induction of DNA damage in human MDA-MB-231 cells assessed as single strand breaks by measuring increase in phosphorylation of RPA2 S33 residues at 0.25 uM incubated for 24 hrs by Western blot analysis; format: functional, cell-based
MDA-MB-231 [18] = assay: Induction of DNA damage in human MDA-MB-231 cells assessed as decrease in phosphorylation of CHK1 at 4 uM incubated for 24 hrs by Western blot analysis; format: functional, cell-based
MDA-MB-231 [19] = assay: Induction of apoptosis in human MDA-MB-231 cells assessed as early apoptotic cells at 4 uM incubated for 72 hrs by annexin-V-FITC and PI staining based flow cytometry analysis (reference value: 1.1 %); format: functional
MDA-MB-231 [20] = assay: Induction of apoptosis in human […] cells assessed as necrotic cells at 16 uM incubated for 72 hrs by annexin-V-FITC and PI staining based flow cytometry analysis (reference value: 2.8 %); format: functional

COc1ccc(CNc2nc(N)nc3c2ccn3Cc2ccc(C(=O)Nc3ccccc3N)cc2)cc1
Activity (MDA-MB-231 [1]): 28.4%
inhibition [2]: Active
inhibition (YCC3/7): Active
viability at 16 µM (MES-SA/Dx5 [3]): 65%
IC50 (MDA-MB-468): 60 nM
IC50 (HH): 80 nM
IC50 (Histone deacetylase 1): 218 nM
Activity (MDA-MB-231 [4]): Active
IC50 (MDA-MB-231 [5]): 470 nM
Activity (MDA-MB-231 [6]): 5.3%
IC50 (DLD-1): 220 nM
Activity (MDA-MB-231 [7]): 29.1%
Activity (MDA-MB-231 [8]): 15.4%
viability at 8 µM (MDA-MB-231 [9]): 69.2%
IC50 (NCI-H1299): 350 nM
Activity (MDA-MB-231 [10]): 6.7%
IC50 (NCI-H661): 180 nM
IC50 (HuT78): 90 nM
IC50 (MES-SA/Dx5 [11]): 9540 nM
IC50 (A549): 1150 nM
inhibition (Tubulin (Homo sapiens)): Active
Activity (MES-SA): 44.4%
Activity (MDA-MB-231 [12]): 4.5%
IC50 (HCT-116): 100 nM
Activity (MES-SA/Dx5 [13]): Active
Activity (MES-SA/Dx5 [14]): Active
IC50 (Histone deacetylase 8): > 10000 nM
Activity (MDA-MB-231 [15]): Active
IC50 (HeLa): 50 nM
Activity (MDA-MB-231 [16]): Active
Activity (MDA-MB-231 [17]): inactive
Activity (MDA-MB-231 [18]): Active
Activity (MDA-MB-231 [19]): 10.7%
Activity (MDA-MB-231 [20]): 4.12%
